# According to US9408856B2, “Topical steroidal formulations” (Temple University—Of The Commonwealth System of Higher …, priority 2008, dated 2016):
# Entries after “also recorded” stand apart in the source; their conditions may differ.
# Columns and labels:
# [1] = test system: dexamethasone-induced thymic and splenic atrophy; experiment: Dexamethasone-induced thymic and splenic atrophy in mice; format: in vivo, CD-1 mice; conditions: for protection against DEX-induced thymic and splenic atrophy: CD-1 mice
# Procedure: Administration of dehydroepiandrosterone (DHEA, 60 mg/kg, s.c.) for three days partially reverse thymic and splenic atrophy induced by a single injection of dexamethasone (1.6 mg/mouse). In this experiment, the efficacy of either 10 mg/kg or 20 mg/kg DHEA administered s.c. versus the effect of 10 mg/kg or 20 mg/kg fluasterone was investigated.
# 5% Cremophor (polyethoxylated castor oil; Sigma Chemicals)-95% saline vehicle was prepared using 95 mL of sterile 0.9% NaCl (filtered through sterile 0.22 micron filter) and 5 mL of Cremophor. The Cremophor was dissolved by swirling for approximately 5 minutes.
# Dexamethasone solutions were prepared by dissolving dexamethasone (Sigma Chemicals) in absolute ethanol. For example, 71.9 mg of dexamethasone was dissolved in 2.9 mL of absolute ethanol. In order to prevent precipitation, the solution was kept on a hotplate between injections.
# For the 10 mg/kg suspension, 25.7 mg of DHEA was weighed out, transferred to a glass scintillation vial, and 10.3 mL of the Cremophor-saline vehicle was added. The DHEA suspension was homogenized using a Tissumizer at 80% power for 30 sec. The Tissumizer was rinsed with 70% ethanol prior to homogenization. After the 10 mg/kg DHEA suspension was homogenized the probe was rinsed 2× with 50 mL of absolute ethanol, then with 50 mL of 70% ethanol, and then dried with sterile gauze. For the 20 mg/kg DHEA suspension, 50.9 mg DHEA was suspended in 10.2 mL of Cremophor-saline vehicle.
# 19.4 mg of fluasterone was weighed out and transferred to a glass scintillation vial. 7.8 mL of Cremophor-saline vehicle was added to the vial and the contents of the vial were homogenized with a Tissumizer as described previously. Prior to preparing the 20 mg/kg fluasterone, the probe was rinsed 2× with 50 mL of absolute ethanol and 1× with 50 mL of 70% ethanol. For the 20 mg/kg suspension, 47.0 mg was weighed out and transferred to a glass scintillation vial. 9.4 mL of Cremophor-saline vehicle was added to the vial and the contents of the vial were homogenized with a Tissumizer as described above.
# Female CD-1 mice, 43-45 days old, were obtained from Charles River Laboratories. The mice were housed 5 per cage in plastic shoebox cages with ad libitum access to Purina chow 5015 and water in the Pharmacy CAF with 12 hr of alternating light and darkness.
# Prior to the experiment the mice were weighed, separated into 6 groups containing 5 mice each and treated as follows:
# Mice were treated s.c. with 0.1 mL of 5% Cremophor-95% saline for three days. On the third day, the mice were also treated s.c. with 1.6 mg of dexamethasone dissolved in 0.06 mL of absolute. ethanol.
# Mice were treated s.c. with 0.25 mg of DHEA suspended in 0.1 mL of 5% Cremophor-95% saline for three days. On the third day, the mice were also treated s.c. with 1.6 mg of dexamethasone dissolved in 0.06 mL of absolute ethanol.
# Mice were treated s.c. with 0.5 mg of DHEA suspended in 0.1 mL of 5% Cremophor-95% saline for three days. On the third day, the mice were also treated s.c. with 1.6 mg of dexamethasone dissolved in 0.06 mL of absolute ethanol.
# Mice were treated s.c. with 0.25 mg of fluasterone suspended in 0.1 mL of 5% Cremophor-95% saline for three days. On the third day, the mice were also treated s.c. with 1.6 mg of dexamethasone dissolved in 0.06 mL of absolute ethanol.
# Mice were treated s.c. with 0.5 mg of fluasterone suspended in 0.1 mL of 5% Cremophor-95% saline for three days. On the third day, the mice were also treated s.c. with 1.6 mg of dexamethasone dissolved in 0.06 mL of absolute ethanol.
# All s.c. injections were made in the nape. All mice were lightly anesthetized while the s.c. injections were done.
# Twenty-four hours after dexamethasone treatment, the mice were euthanized by an overdose of isoflurane. The spleen and thymus were removed, cleaned of any adventitia, rinsed, blotted on filter paper, and weighed. […]
# [2] = Solubility of fluasterone in solvents and mixed solvents; format: physicochemical; conditions: thermodynamic from solid
# Procedure: Fluasterone: The solubility of fluasterone in various solvents was determined by adding a specific volume of solvent to a weighed amount of fluasterone in a screw-capped glass vial and shaking vigorously for several minutes. Incremental volumes of solvent were added, followed by vigorous shaking, until the fluasterone completely dissolved.
# Alternatively solubility was determined by adding a specific volume of solvent to a weighed amount of fluasterone in a screw-capped glass vial and warming the vial on a hot plate with vigorous shaking until the fluasterone dissolved. Fluasterone was considered soluble if it remained in solution after at least a month at room temperature. Although the above procedures may not give precise solubilities, they should give a close approximation of maximum fluasterone solubility.
# In these experiments fluasterone solubility was determined by adding fluasterone to a measured volume of solvent in a screw-capped glass vial. The vial was warned on a hot plate with vigorous shaking until the fluasterone dissolved. Fluasterone was considered soluble if it remained in solution after at least a month at room temperature.
# [3] = Table 12, 10 mg/kg s.c. 3 days + dexamethasone 1.6 mg s.c. on day 3, 24 h after dexamethasone
# [4] = Table 12, 20 mg/kg s.c. 3 days + dexamethasone 1.6 mg s.c. on day 3, 24 h after dexamethasone
# [5] = Table 14, micronized steroid 10 mg/kg + dexamethasone
# [6] = Table 14, micronized steroid 20 mg/kg + dexamethasone
# [7] = Table 15, steroid 10 mg/kg in Cremophor-saline + dexamethasone
# [8] = Table 16, steroid 5 mg/kg + dexamethasone
# [9] = Table 16, steroid 10 mg/kg + dexamethasone
structure (smiles),measurement,setting,value
"C[C@]12CCCCC1=CC[C@@H]1[C@@H]2CC[C@]2(C)C(=O)[C@H](F)C[C@@H]12 [Fluasterone, 16α-fluoro-5-androsten-17-one]",protection against DEX-induced thymic and splenic atrophy,[1]; 5 mg/kg,significant protection
same,protection against DEX-induced thymic and splenic atrophy,[1]; 10 mg/kg,highly active; also recorded: as active as DHEA at 60 mg/kg
same,potency relative to DHEA in protecting against dexamethasone-induced thymic and splenic atrophy,"[1]; Example 8, micronized",about 6 ×
same,Body Weight,[1]; [3],24.3 ± 1.0
same,Spleen wt,[1]; [3],77.5 ± 14.4
same,Spleen wt/BW,[1]; [3],3.2 ± 0.5
same,Thymus wt,[1]; [3],60.9 ± 5.2
same,Thymus wt/BW,[1]; [3],2.5 ± 0.3
same,Body Weight,[1]; [4],25.2 ± 0.6
same,Spleen wt,[1]; [4],73.9 ± 13.8
same,Spleen wt/BW,[1]; [4],2.9 ± 0.6
same,Thymus wt,[1]; [4],60.8 ± 5.3
same,Thymus wt/BW,[1]; [4],2.4 ± 0.2
same,Body Weight,[1]; [5],26.7 ± 3.6
same,Spleen wt,[1]; [5],83.0 ± 6.2
same,Spleen wt/BW,[1]; [5],3.1 ± 0.3
same,Thymus wt,[1]; [5],68.0 ± 11.5
same,Thymus wt/BW,[1]; [5],2.5 ± 0.3
same,Body Weight,[1]; [6],27.2 ± 3.1
same,Spleen wt,[1]; [6],83.1 ± 7.9
same,Spleen wt/BW,[1]; [6],3.1 ± 0.4
same,Thymus wt,[1]; [6],66.3 ± 9.0
same,Thymus wt/BW,[1]; [6],2.4 ± 0.2
same,Body Weight,[1]; [7],24.8 ± 0.8
same,Spleen wt,[1]; [7],80.0 ± 7.7
same,Spleen wt/BW,[1]; [7],3.2 ± 0.4
same,Thymus wt,[1]; [7],67.5 ± 3.9
same,Thymus wt/BW,[1]; [7],2.7 ± 0.2
same,Body Weight,[1]; [8],25.7 ± 1.7
same,Spleen wt,[1]; [8],62.0 ± 10.2
same,Spleen wt/BW,[1]; [8],2.4 ± 0.3
same,Thymus wt,[1]; [8],50.8 ± 10.9
same,Thymus wt/BW,[1]; [8],2.0 ± 0.3
same,Body Weight,[1]; [9],25.2 ± 1.4
same,Spleen wt,[1]; [9],89.4 ± 12.3
same,Spleen wt/BW,[1]; [9],3.5 ± 0.4
same,Thymus wt,[1]; [9],65.6 ± 4.4
same,Thymus wt/BW,[1]; [9],2.6 ± 0.2
same,Approximate Potency Compared to Fluasterone in Protecting Against DEX-induced Thymic and Splenic Involution,"[1]; fluasterone = 1, mice",1
same,rank of activity among steroids tested against DEX-induced thymic and splenic involution,[1]; mice,most active steroid tested
same,rank of activity among steroids tested against DEX-induced thymic and splenic involution,"[1]; mice, listed as fluasterone",most potent compound
same,solubility,"[2]; 10% Tween 80-90% ethanol (v/v), organic solvent or mixture, room temperature",< 10000 µg/mL
same,solubility,"[2]; 15% Tween 80-85% ethanol (v/v), organic solvent or mixture, room temperature",< 10000 µg/mL
same,solubility,"[2]; 20% Tween 80-80% ethanol (v/v), organic solvent or mixture, room temperature",> 10000 µg/mL
same,solubility,"[2]; 50% Tween 80-50% ethanol (v/v), organic solvent or mixture, room temperature",> 14000 µg/mL
same,solubility,"[2]; cetyl alcohol:ethanol (10%:90%, w/w), organic solvent or mixture, cetyl alcohol:ethanol (10%:90%, w/w), room temperature",< 10000 µg/mL
same,solubility,"[2]; cetyl alcohol:ethanol (20%:80%, w/w), organic solvent or mixture, cetyl alcohol:ethanol (20%:80%, w/w), room temperature",< 12000 µg/mL
same,solubility,"[2]; cetyl alcohol:ethanol mixtures (20-22% cetyl alcohol), organic solvent or mixture, cetyl alcohol:ethanol mixtures (20-22% cetyl alcohol), summary, room temperature",> 10000 µg/mL
same,solubility,"[2]; dimethyl sulfoxide (DMSO), organic solvent or mixture",3600 µg/mL
same,solubility,"[2]; ethanol, organic solvent or mixture",6600 µg/mL
same,solubility,"[2]; isopropyl myristate, oil or lipid",16000 µg/mL
same,solubility,"[2]; limonene, organic solvent or mixture",22600 µg/mL
same,solubility,"[2]; polyethylene glycol 400 (PEG-400), organic solvent or mixture",1100 µg/mL
same,solubility,"[2]; propylene glycol, organic solvent or mixture",> 500 µg/mL
